Read-outs that look alike come from different tables or passages of the source.
Legend:
[1] = test system: p-cMyc(S62), cMyc, p-AKT(S473), AKT, p-ERK(T202/Y204), ERK; assay: Target engagement Western blot in HCT116 cells; assay type: cell-based; conditions: 10-80 μM, 3 hours
Protocol: For Western blot, the compounds were tested at 4 concentrations for 3 hours on 3 colon cancer cell lines. The compounds, concentrations, colon cancer cell line panel, and antibodies panel tested are the following: • CBG: 0 μM, 10 μM, 20 μM, 40 μM, and 80 μM. • Compound 1: 0 μM, 10 μM, 20 μM, 40 μM, and 80 μM. • Compound 2: 0 μM, 10 μM, 20 μM, 40 μM, and 80 μM. • Colon cancer cell line panel: SW620, HCT15, HCT116 • Antibodies panel: p-cMYC(S62), cMyc, p-AKT(S473), AKT, p-ERK(T202/Y204), ERK Methods
Evaluation of target engagement was performed to determine the expression of specific marker protein expression and underlying signaling pathways with Western blot.
Western blot. Whole cell extracts were prepared by incubating cell pellets in IP lysis buffer supplemented with protease and phosphatase inhibitors (Roche). Isolated protein was quantified by Pierce BCA Protein assay (ThermoFisher). Equal quantities of protein were separated by 4-15% SDS-PAGE electrophoresis gels and transferred onto nitrocellulose membranes. Membranes was blocked with 5% nonfat milk in Tris-buffered saline-Tween buffer. […]

UGT = UGT reaction phenotyping, all the UGTs combined; assay type: in vitro ADME, Human
From the text: Experimental Summary: UGT Reaction Phenotyping (7 Isoforms).

[2] = test system: cryopreserved hepatocytes; assay: Hepatocyte stability and metabolite profiling; assay type: in vitro ADME, monkey; conditions: monkey hepatocyte samples
Protocol: (§1) The objective of this study was to investigate the stability of the test compound, CBG, in human, rat, dog, mouse, monkey and minipig cryopreserved hepatocytes. Follow-on metabolite profiling was performed.
(§2) CBG was incubated up to 2 hr with cryopreserved hepatocytes. Cryopreserved hepatocytes in suspension were added to test compound in supplemented media following pre-incubation to initiate the reaction and the reactions were stopped by organic solvent at the appropriate time points. The termination plates were centrifuged and sample supernatants were analysed using Cyprotex generic LC MS/MS conditions to generate intrinsic clearance values for CBG. Two control compounds for each species were included in the assay and if the values for these compounds were not within the specified limits the results were rejected and the experiment repeated.
(§3) Following the hepatocyte stability assay the samples were 59tilized for metabolite profiling using suitable high-resolution LC-MS/MS conditions. The 40 and 60 minute human samples, 20 and 120 minute rat samples, 10 and 20 minute dog and monkey samples, 20 and 60 minute mouse samples, and 40 and 120 minute minipig samples were compared against the 0 minute control sample to establish which and how many metabolites were formed. […] No further analysis was carried out with the mouse species.
(§4) The areas and percentages reported for the parent and metabolites were calculated using the XIC data. Metabolite observed at greater than 1% of the total of drug related material are reported. […] For accuracy, a ppm error of less than 5 is desirable; when the response for a metabolite observed is low the ppm error maybe greater than 5. Where a metabolite has been referred to as a potential oxidation it can refer to a potential hydroxylation, epoxidation or oxide formation. Representative collision induced dissociation (CID) mass spectra were obtained for the metabolites found.

[3] = Hepatocyte stability and metabolite profiling; assay type: in vitro ADME, monkey; conditions: cryopreserved hepatocytes in suspension; Monkey cryopreserved hepatocytes
Protocol: as §1, §2, §3, §4

[4] = Metabolic stability in human intestine microsomes (UDPGA, UGT activity only); assay type: in vitro ADME; conditions: human, pooled intestinal microsomes, pH 7.4, 1 μM, 0.5 mg/mL microsomes + alamethicin, UDPGA
Protocol: The objective of this study was to investigate the stability of the test compound, CBG, in the presence of intestinal microsomes that only have UGT activity and no CYP activity.
Test compound (1 μM) was incubated with pooled intestinal microsomes at 6 time points over the course of a 60 min assay and the test compound is analyzed by LC-MS/MS.
The final incubation volume is 500 μL. A minus cofactor control incubation was included for each compound tested where 0.1 M Tris, 5 mM MgCl2 buffer pH 7.4 is added instead of UDPGA (minus UDPGA). Two control compounds were included. All incubations were performed singularly for each test compound.
Each compound was incubated for 0, 5, 10, 20, 40 and 60 min. The control (minus UDPGA) was incubated for 60 min only. The reactions were stopped by transferring incubate into acetonitrile at the appropriate time points, in a 1:3 ratio. The termination plates were centrifuged at 3,000 rpm for 20 min at 4° C. to precipitate the protein.
Following protein precipitation, the sample supernatants were combined in cassettes of up to 4 compounds, internal standard was added and samples analysed using Cyprotex generic LC-MS/MS conditions.
From a plot of ln peak area ratio (compound peak area/internal standard peak area) against time, the gradient of the line was determined. Subsequently, half-life and intrinsic clearance were calculated using the equations below: […]

[5] = Quantification of CBG in rat brain tissue (LC-MS/MS); assay type: in vivo, Sprague-Dawley rat; conditions: for concentration at 24 h: Sprague-Dawley, rat, brain, oral
Protocol: The purpose of this study was to quantify cannabigerol (CBG) in rat plasma and brain.
Seven- to nine-week-old male and female Sprague-Dawley received either a single dose or once daily dosing for 21 days of vehicle or CBG at three different dosage levels as shown in the Table below.
Approximately 0.2-0.25 mL blood was collected during the first 24 hours after the single dose, and at multiple times points after the terminal dose for the animals receiving daily dosing for 21 days. Liver, kidney, and colon samples were collected and fixed in 10% NBF for 48 hours, then stored in 70% ethanol at room temperature. Brain samples were collected and flash frozen.
Analytical curves were constructed using non-zero standards with CBG concentration ranging from 0.0025 to 2.500 μg/mL and 2.500-100.0 μg/mL in blank rat plasma samples and 1.0 to 2500 ng/mL in blank brain tissues. A blank sample was used to exclude contamination.
Instrument Used: AB SCIEX QTRAP 4500/Shimadzu Prominence LC

[6] = test system: cryopreserved hepatocytes; assay: Hepatocyte stability and metabolite profiling; assay type: in vitro ADME, human; conditions: human hepatocyte samples
Protocol: as §1, §2, §3, §4

[7] = Hepatocyte stability and metabolite profiling; assay type: in vitro ADME, human; conditions: cryopreserved hepatocytes in suspension; Human cryopreserved hepatocytes
Protocol: as §1, §2, §3, §4

[8] = test system: cryopreserved hepatocytes; assay: Hepatocyte stability and metabolite profiling; assay type: in vitro ADME, rat; conditions: rat hepatocyte samples
Protocol: as §1, §2, §3, §4

[9] = Hepatocyte stability and metabolite profiling; assay type: in vitro ADME, rat; conditions: cryopreserved hepatocytes in suspension; Rat cryopreserved hepatocytes
Protocol: as §1, §2, §3, §4

Row | SMILES | pAKT(S473) (Western blot) [1] | Total UGT activity relative to that observed with CBG (UGT) [%] | share of total UGT activity associated with UGT1A9 and UGT2B7 (UGT) [%] | number of metabolites observed [2] | half-life [3] [min] | hepatocyte CLint [3] [µL/min/1e6 cells] | half-life at 1 µM [4] [min] | microsomal CLint at 1 µM ([4]; from 0 and 5 minute time points only) [µL/min/mg] | CBG concentration in rat brain tissue (Day 21) ([5]; CBG 10 mg/kg oral gavage once daily, 24 hrs post Rx) | concentration at 24 h ([5]; both sexes, 30 mg/kg, CBG 30 mg/kg oral gavage once daily, 24 hrs post Rx, read-out: CBG concentration in rat brain tissue (Day 21)) [ng/g] | concentration at 24 h ([5]; female, 100 mg/kg, CBG 100 mg/kg once daily, 24 hrs post Rx, female rats, read-out: CBG concentration in rat brain tissue (Day 21), Average) [ng/g] | concentration at 24 h ([5]; male, 100 mg/kg, CBG 100 mg/kg once daily, 24 hrs post Rx, male rats, read-out: CBG concentration in rat brain tissue (Day 21), Average) [ng/g] | CBG in brain (in words) ([5]; oral CBG, Day 21) | number of metabolites observed [6] | half-life [7] [min] | hepatocyte CLint [7] [µL/min/1e6 cells] | number of metabolites observed [8] | half-life [9] [min] | hepatocyte CLint [9] [µL/min/1e6 cells]
1 | CCCCCc1cc(O)c(C/C=C(\C)CCC=C(C)C)c(OC)c1 [Compound 1, (E)-2-(3,7-dimethylocta-2,6-dien-1-yl)-3-methoxy-5-pentylphenol] | down-regulated pAKT(S473) in HCT116 cells with a dose effect | 23 | 73 | – | – | – | – | – | – | – | – | – | – | – | – | – | – | – | –
2 | CCCCCc1cc(O)c(C/C=C(\C)CCC=C(C)C)c(O)c1 [CBG, cannabigerol] | – | – | – | four | 11.3 | 122 | 1.57 | 884 | BLQ (BLQ—Below Limit of Quantification (1.0 ng/g)) | 43.8 | 299 | 540 | not detected | Seven | 22.6 | 61.4 | eight | 49 | 28.3
